In patent US6506393B2, “Methods of treating protozoal diseases” (Zentaris AG, priority 1991, dated 2003):
≈ marks a conversion by molar mass, not a printed value. Entries after “also recorded” stand apart in the source; their conditions may differ.

Tests used:
[1] = tested on: three strains of Leishmania (L. donovani MHOM/IN/54LRC-L.51; L. donovani MHOM/IN/80/DDS and L. infantum MHOM/ES/86/STI-172); test: Effect on pathogens in vivo: parasite burden in liver and spleen of infected Balb/c mice (Example 42)
Method: Several compounds of the invention were tested against three strains of Leishmania (L. donovani MHOM/IN/54LRC-L.51; L. donovani MHOM/IN/80/DDS and L. infantum MHOM/ES/86/STI-172). All strains were isolated from patients with visceral leishmaniasis. Before use for experiments, the strains were passed through Balb/c mice by intravenous injection.
Balb/c mice were infected by intravenous injection of a mixture of 10^7 promastigotes from stationary growth phase and 10^7 amastigotes which were isolated from the liver or spleen of leishmania-infected mice. Oral treatment with the compounds of the invention was initiated on day 7, at which time the mean parasitic burden was 100 to 200×10^6 amastigotes per liver, 1 to 2×10^6 per spleen and 3 to 6 amastigotes per microscopic field of 100 hematopoietic cells in bone marrow.
Parasite burden in spleen and liver were determined in GIEMSA's stained impression smears from cut sections by counting the number of amastigotes per 1000 spleen or liver nuclei. The total number of amastigotes per organ was calculated according to Stauber et al. (J. Protozool. 5:269-273 (1958)). Parasite suppression (parasite burden of drug treated mice to parasite burden of untreated mice) and parasite killing (parasite burden at the end of treatment to parasite burden at the start of treatment) were calculated according to Baumann et al. (Antimicrob. Agents Chemother. 35:1403-1407 (1991)) for all strains on day 14, for the strain LRC-L.51 in addition on days 21, 25 and 35 post-infectionem. The parasite burden in the bone marrow was examined on days 7 and 35 post-infectionem (strain LRC-L.51).
Table V summarizes the in vivo treatment results of several compounds of the invention in the liver and the spleen of treated mice. […] However, it is clear from the Table that the compounds of the invention produced much better results.

[2] = tested on: L. donovani strain MHOM/IN/54LRC-L.51 promastigotes; test: Effect on pathogens in vitro: promastigote culture, 96 hours, counting chamber (Example 41); format: cell-based; details: 96 hours of incubation, 26° C., mean and SD of 3 experiments; for IC50: Leishmania donovani
Method: Several compounds of the invention were tested against L. donovani strain MHOM/IN/54LRC-L.51, isolated from a patient with visceral leishmaniasis. Before use for experiments, the strain was passed through Balb/c mice by intravenous injection.
Promastigotes were cultured in vitro in a mixed medium consisting of one part of HOSMEM and one part of RPMI-1640 (Gibco 041-02400) supplemented with 10% heat-inactivated fetal bovine serum (Gibco 011-06290) at 26° C. Cultures were maintained by seeding 5×10^6 promastigotes from 4-day-old cultures into 10 ml fresh medium. The promastigotes were cultured in 24-well-multiplates. After 96 hours of incubation in control or drug-containing media, the number of promastigotes was determined in a Neubauer counting chamber. The 50% inhibitory concentration was calculated graphically. The data is representative of the mean and SD values of 3 different experiments.

[3] = tested on: L. donovani; test: Effect of leishmaniasis drugs on the number of pathogens in liver and spleen of rats infected with L. donovani (Examples 39, 40); format: in vivo; details: for Pathogens per spleen (in millions): 3 week period of therapy; for Relative effectiveness (pathogens per spleen after Pentostam therapy divided by pathogens/spleen after addition of test substance): procedure as in example 39 (orally 5 × 20 mg/kg/week for 3 weeks)
[4] = tested on: Leishmania; test: Four-week treatment period of Leishmania-infected mice (Example 43); format: in vivo
Description: In a further experiment, hexadecylphosphocholine was investigated in more detail.

[5] = tested on: L. donovani; test: Effect of leishmaniasis drugs on the number of pathogens in liver and spleen of rats infected with L. donovani (Examples 39, 40); format: in vivo; details: for Relative effectiveness (pathogens per liver after Pentostam therapy divided by pathogens/liver after addition of test substance) / Pathogens per liver (in millions): orally 5 × 20 mg/kg/week for 3 weeks; for Pathogens per liver (in millions): rats infected with L. donovani, microscopic analysis
Method: Effect of various leishmaniasis drugs on the presence of pathogens in the liver of experimental animals (rats) infected with L. donovani.
The compounds according to the present invention and Et18OCH3 were administered orally while Pentostam was administered intravenously.
The number of pathogens per liver was determined by microscopic analysis.
The experimental procedure was as described in example 39.

[6] = in vivo, sc; cited from earlier work
[7] = procedure as in example 39 (orally 5 × 20 mg/kg/week)

CCCCCCCC/C=C\CCCCCCCCOP(=O)([O-])OCC[N+](C)(CC)CC [Example 20, Oleylphospho-(N.N-diethyl-N-methyl)-ethanolamine]
Parasites (× 10^6) Liver ([1]; oral treatment, dose 20 mg/kg): 55 × 10^6
Parasites (× 10^6) Spleen ([1]; oral treatment, dose 20 mg/kg): 3.8 × 10^6
IC50 Value [2]: 2.80 ± 0.50 µg/mL (≈ 6.06 µM)

O.O.O.O.O.O.O.O.O.O=C([O-])[C@@H]1[O][Sb]2([O-])([O][Sb]34([OH])[O][C@H]([C@H](O)CO)[C@H]([O]3)[C@H](C(=O)[O-])[O]4)[O][C@H]([C@H](O)CO)[C@@H]1[O]2.[Na+].[Na+].[Na+] [Pentostam, sodium stibogluconate, reference compound]
Parasites (× 10^6) Liver ([1]; Pentostam, dose 120 mg/kg): significantly reduced the parasite burden
Parasites (× 10^6) Spleen ([1]; Pentostam, dose 120 mg/kg): significantly reduced the parasite burden
Pathogens per spleen (in millions) ([3]; procedure as in example 39 (Pentostam iv. 5 × 120 mg/kg/week), 120 mg/kg): weak effect; also recorded: extremely low effectiveness
Suppression of parasite growth in the spleen compared to control mice ([4]; spleen, Pentostam): only a moderate suppression of parasite growth

CCCCCCCC/C=C\CCCCCCCCOP(=O)([O-])OCC[N+](CC)(CC)CC [cis-9-octadecenylphospho-(N,N-diethyl,N-ethylamino)ethanol]
Parasites (× 10^6) Liver ([1]; oral treatment, dose 20 mg/kg): 6 × 10^6
Parasites (× 10^6) Spleen ([1]; oral treatment, dose 20 mg/kg): 0.03 × 10^6
IC50 Value [2]: 0.66 ± 0.24 µg/mL (≈ 1.39 µM)

CCCCCCCC/C=C/CCCCCCCCOP(=O)([O-])OCC[N+](C)(C)C [Example 4, Elaidylphosphocholine]
Parasites (× 10^6) Liver ([1]; oral treatment, dose 20 mg/kg): 28 × 10^6
Parasites (× 10^6) Spleen ([1]; oral treatment, dose 20 mg/kg): 0.02 × 10^6
IC50 [2]: 0.41 ± 0.14 µg/mL (≈ 0.946 µM)

CCCCCCCCCCCCCCCCCCOCC(COP(=O)([O-])OCC[N+](C)(C)C)OC (racemic) [Et18OCH3, 1-octadecyl-2-methyl-rac-glycero-3-phosphocholine, reference compound]
Relative effectiveness (pathogens per liver after Pentostam therapy divided by pathogens/liver after addition of test substance) [5]: 0.007
Pathogens per liver (in millions) [5]: 424.7 millions
Pathogens per spleen (in millions) [3, 7]: 6.5 millions
Relative effectiveness (pathogens per spleen after Pentostam therapy divided by pathogens/spleen after addition of test substance) [3]: 0.9

CCCCCCCCCCCCCCCCOP(=O)([O-])OCC[N+](C)(C)C [Example 1, Hexadecylphosphocholine]
Parasites microscopically detectable in the liver and in the spleen ([5]; additional experiments, single oral dose of 200 mg): no longer microscopically detectable
Pathogens per liver (in millions) [5]: 0.1 millions
Parasites (× 10^6) Liver ([1]; oral treatment, dose 20 mg/kg): 0.07 × 10^6
Parasites (× 10^6) Spleen ([1]; oral treatment, dose 20 mg/kg): 0.008 × 10^6
IC50 [2]: 2.07 ± 0.23 µg/mL (≈ 5.08 µM)
Pathogens per spleen (in millions) [3, 7]: 0.01 millions
Parasites microscopically detectable ([3]; several additional experiments (Example 40, spleen), single oral dose of 200 mg): no longer microscopically detectable
Toxicity for the experimental animals, in particular for macrophages [6]: highly toxic
Spleen Weight ([4]; Leishmania-infected mice, 10 mg (oral)): 150 mg
Reduction of parasites in the spleen ([4]; spleen, oral treatment with 20 mg/kg): more than three log rank reduction of parasites

CCCCCCCCCCCCCCCCCCOP(=O)([O-])OCC[N+](C)(C)C [Example 2, Octadecylphosphocholine]
Relative effectiveness (pathogens per liver after Pentostam therapy divided by pathogens/liver after addition of test substance) [5]: 32.0
Pathogens per liver (in millions) [5]: 0.1 millions
Parasites (× 10^6) Liver ([1]; oral treatment, dose 20 mg/kg): 0.07 × 10^6
Parasites (× 10^6) Spleen ([1]; oral treatment, dose 20 mg/kg): 0.015 × 10^6
IC50 [2]: 0.8 ± 0.2 µg/mL (≈ 1.84 µM)
Pathogens per spleen (in millions) [3, 7]: 0.01 millions
Relative effectiveness (pathogens per spleen after Pentostam therapy divided by pathogens/spleen after addition of test substance) [3]: 630.0

octadecylphosphoethanol-(N-methyl)piperidine
Parasites (× 10^6) Liver ([1]; oral treatment, dose 20 mg/kg): 65 × 10^6
Parasites (× 10^6) Spleen ([1]; oral treatment, dose 20 mg/kg): 0.35 × 10^6
IC50 Value [2]: 4.90 ± 0.50 µg/mL

CCCCCCCCCCCCCCCCCCOP(=O)([O-])OCC[N+]1(C)CCCC1 [Example 19, Octadecylphospho-(N-methyl)-pyrrolidino-ethyl ester]
Parasites (× 10^6) Liver ([1]; oral treatment, dose 20 mg/kg): 22 × 10^6
Parasites (× 10^6) Spleen ([1]; oral treatment, dose 20 mg/kg): 0.035 × 10^6
IC50 Value [2]: 3.59 ± 0.19 µg/mL (≈ 7.78 µM)

CCCCCCCC/C=C\CCCCCCCCOP(=O)([O-])OCC[N+](C)(C)CC [Example 7, Oleylphospho-(N.N-dimethyl-N-ethyl)ethanolamine]
Relative effectiveness (pathogens per liver after Pentostam therapy divided by pathogens/liver after addition of test substance) ([5]; 20 mg/kg): 0.7
Relative effectiveness (pathogens per liver after Pentostam therapy divided by pathogens/liver after addition of test substance) ([5]; listed as olely-phospho-(N.N-dimethyl-N-ethyl)ethanolamine, 20 mg/kg): comparable effect to Pentostam
Pathogens per liver (in millions) [5]: 4.7 millions
Pathogens per spleen (in millions) [3, 7]: 0.03 millions
Relative effectiveness (pathogens per spleen after Pentostam therapy divided by pathogens/spleen after addition of test substance) [3]: 210.0
